# Target: HSP90 (Homo sapiens, UniProt P07900)
# Assay: HSP90 inhibition (HSP90 IC50)
# Type: biochemical
row,Structure (SMILES),IC50 [nM]
1,"CC(=O)c1ccc(N2[C@@H]3CC[C@H]2C[C@@H](NC(=O)c2ccc(C(N)=O)c(NC4CCNCC4)c2)C3)nc1 [N4-[8-(5-acetylpyridin-2-yl)-8-azabicyclo[3.2.1]oct-3-endo-yl]-2-(piperidin-4-ylamino)benzene-1,4-dicarboxamide]",< 500
2,"CC(=O)c1ccc(N2[C@@H]3CC[C@H]2C[C@@H](NC(=O)c2ccc(C(N)=O)c(NC4CCOCC4)c2)C3)nc1 [N4-[8-(5-acetylpyridin-2-yl)-8-azabicyclo[3.2.1]oct-3-endo-yl]-2-(tetrahydro-2H-pyran-4-ylamino)benzene-1,4-dicarboxamide]",< 500
3,"CC(=O)c1ccc(N2[C@@H]3CC[C@H]2C[C@@H](NC(=O)c2ccc(C(N)=O)c(NC4CCOC4)c2)C3)nc1 (stereo partly drawn) [N4-[8-(5-acetylpyridin-2-yl)-8-azabicyclo[3.2.1]oct-3-endo-yl]-2-(tetrahydrofuran-3-ylamino)benzene-1,4-dicarboxamide]",< 500
4,"CC(=O)c1ccc(N2[C@@H]3CC[C@H]2C[C@@H](NC(=O)c2ccc(C(N)=O)c(NCCCNC(C)C)c2)C3)nc1 [N4-[8-(5-acetylpyridin-2-yl)-8-azabicyclo[3.2.1]oct-3-endo-yl]-2-({3-[(1-methylethyl)amino]propyl}amino) benzene-1,4-dicarboxamide]",500 to 999
5,"CCN1CCC(Nc2cc(C(=O)N[C@H]3C[C@H]4CC[C@@H](C3)N4c3ccc(C(C)=O)cn3)ccc2C(N)=O)CC1 [N4-[8-(5-acetylpyridin-2-yl)-8-azabicyclo[3.2.1]oct-3-endo-yl]-2-[(1-ethylpiperidin-4-yl)amino]benzene-1,4-dicarboxamide]",500 to 999
6,"CCCC(CCC)Nc1cc(C(=O)N[C@H]2C[C@H]3CC[C@@H](C2)N3c2ccc(C(C)=O)cn2)ccc1C(N)=O [N4-[8-(5-acetylpyridin-2-yl)-8-azabicyclo[3.2.1]oct-3-endo-yl]-2-[(1-propylbutyl)amino]benzene-1,4-dicarboxamide]",< 500
7,"CC(=O)c1ccc(N2[C@@H]3CC[C@H]2C[C@@H](NC(=O)c2ccc(C(N)=O)c(NCC(F)(F)F)c2)C3)nc1 [N4-[8-(5-acetylpyridin-2-yl)-8-azabicyclo[3.2.1]oct-3-endo-yl]-2-[(2,2,2-trifluoroethyl)amino]benzene-1,4-dicarboxamide]",< 500
8,"CC(=O)c1ccc(N2[C@@H]3CC[C@H]2C[C@@H](NC(=O)c2ccc(C(N)=O)c(NCC(F)(F)C(F)(F)F)c2)C3)nc1 [N4-[8-(5-acetylpyridin-2-yl)-8-azabicyclo[3.2.1]oct-3-endo-yl]-2-[(2,2,3,3,3-pentafluoropropyl)amino]benzene-1,4-dicarboxamide]",< 500
9,"CC(=O)c1ccc(N2[C@@H]3CC[C@H]2C[C@@H](NC(=O)c2ccc(C(N)=O)c(NCC(F)(F)C(F)(F)C(F)(F)F)c2)C3)nc1 [N4-[8-(5-acetylpyridin-2-yl)-8-azabicyclo[3.2.1]oct-3-endo-yl]-2-[(2,2,3,3,4,4,4-heptafluorobutyl)amino]benzene-1,4-dicarboxamide]",500 to 999
10,"CC(=O)c1ccc(N2C3CCC2CC(NC(=O)c2ccc(C(N)=O)c(NCCN)c2)C3)nc1 (stereo not drawn) [N4-[8-(5-acetylpyridin-2-yl)-8-azabicyclo[3.2.1]oct-3-endo-yl]-2-[(2-aminoethyl)amino]benzene-1,4-dicarboxamide]",< 500
11,"CC(=O)c1ccc(N2[C@@H]3CC[C@H]2C[C@@H](NC(=O)c2ccc(C(N)=O)c(NCCC(F)(F)F)c2)C3)nc1 [N4-[8-(5-acetylpyridin-2-yl)-8-azabicyclo[3.2.1]oct-3-endo-yl]-2-[(3,3,3-trifluoropropyl)amino]benzene-1,4-dicarboxamide]",< 500
12,"CC(=O)c1ccc(N2C3CCC2CC(NC(=O)c2ccc(C(N)=O)c(N[C@@H]4CCOC4)c2)C3)nc1 (stereo partly drawn) [N4-[8-(5-acetylpyridin-2-yl)-8-azabicyclo[3.2.1]oct-3-endo-yl]-2-[(3R)-tetrahydrofuran-3-ylamino]benzene-1,4-dioarboxamide]",< 500
13,"CC(=O)c1ccc(N2C3CCC2CC(NC(=O)c2ccc(C(N)=O)c(N[C@H]4CCOC4)c2)C3)nc1 (stereo partly drawn) [N4-[8-(5-acetylpyridin-2-yl)-8-azabicyclo[3.2.1]oct-3-endo-yl]-2-[(3S)-tetrahydrofuran-3-ylamino]benzene-1,4-dicarboxamide]",< 500
14,"CC(=O)c1ccc(N2[C@@H]3CC[C@H]2C[C@@H](NC(=O)c2ccc(C(N)=O)c(NCC4CCNC4)c2)C3)nc1 (stereo partly drawn) [N4-[8-(5-acetylpyridin-2-yl)-8-azabicyclo[3.2.1]oct-3-endo-yl]-2-[(pyrrolidin-3-ylmethyl)amino]benzene-1,4-dicarboxamide]",< 500
15,"CC(=O)c1ccc(N2[C@@H]3CC[C@H]2C[C@@H](NC(=O)c2ccc(C(N)=O)c(NCC4CCCO4)c2)C3)nc1 (stereo partly drawn) [N4-[8-(5-acetylpyridin-2-yl)-8-azabicyclo[3.2.1]oct-3-endo-yl]-2-[(tetrahydrofuran-2-ylmethyl)amino]benzene-1,4-dicarboxamide]",< 500
16,"CC(=O)c1ccc(N2C3CCC2CC(NC(=O)c2ccc(C(N)=O)c(N[C@H]4CC[C@H](O)CC4)c2)C3)nc1 (stereo partly drawn) [N4-[8-(5-acetylpyridin-2-yl)-8-azabicyclo[3.2.1]oct-3-endo-yl]-2-[(trans-4-hydroxycyclohexyl)amino]benzene-1,4-dicarboxamide]",< 500
17,"CC(=O)c1ccc(N2[C@@H]3CC[C@H]2C[C@@H](NC(=O)c2ccc(C(N)=O)c(N)c2)C3)nc1 [N4-[8-(5-acetylpyridin-2-yl)-8-azabicyclo[3.2.1]oct-3-endo-yl]-2-aminobenzene-1,4-dicarboxamide]",500 to 999
18,"CC(=O)c1ccc(N2[C@@H]3CC[C@H]2C[C@@H](NC(=O)c2ccc(C(N)=O)c(N4CCC4)c2)C3)nc1 [N4-[8-(5-acetylpyridin-2-yl)-8-azabicyclo[3.2.1]oct-3-endo-yl]-2-azetidin-1-ylbenzene-1,4-dicarboxamide]",2000 to 10000
19,"CC(=O)c1ccc(N2[C@@H]3CC[C@H]2C[C@@H](NC(=O)c2ccc(C(N)=O)c(Br)c2)C3)nc1 [N4-[8-(5-acetylpyridin-2-yl)-8-azabicyclo[3.2.1]oct-3-endo-yl]-2-bromobenzene-1,4-dicarboxamide]",< 500

# More lines, now with the values ahead:
row,IC50 [nM],Structure (SMILES)
1,< 500,"CCCNc1cc(C(=O)N[C@H]2C[C@H]3CC[C@@H](C2)N3c2ccc(C(C)=O)cn2)ccc1C(N)=O [N4-[8-(5-acetylpyridin-2-yl)-8-azabicyclo[3.2.1]oct-3-endo-yl]-2-(propylamino)benzene-1,4-dicarboxamide]"
2,< 500,"CC(=O)c1ccc(N2[C@@H]3CC[C@H]2C[C@@H](NC(=O)c2ccc(C(N)=O)c(NCCOC(C)C)c2)C3)nc1 [N4-[8-(5-acetylpyridin-2-yl)-8-azabicyclo[3.2.1]oct-3-endo-yl]-2-({2-[(1-methylethyl)oxy]ethyl}amino)benzene-1,4-dicarboxamide]"
3,< 500,"COc1ccc(Nc2cc(C(=O)N[C@H]3C[C@H]4CC[C@@H](C3)N4c3ccc(C(C)=O)cn3)ccc2C(N)=O)cc1OCCN1CCOCC1 [N4-[8-(5-acetylpyridin-2-yl)-8-azabicyclo[3.2.1]oct-3-endo-yl]-2-({4-(methyloxy)-3-[(2-morpholin-4-ylethyl)oxy]phenyl}amino)benzene-1,4-dicarboxamide]"
4,< 500,"CC(=O)c1ccc(N2[C@@H]3CC[C@H]2C[C@@H](NC(=O)c2ccc(C(N)=O)c(NC(C)C(C)(C)C)c2)C3)nc1 (stereo partly drawn) [N4-[8-(5-acetylpyridin-2-yl)-8-azabicyclo[3.2.1]oct-3-endo-yl]-2-[(1,2,2-trimethylpropyl)amino]benzene-1,4-dicarboxamide]"
5,< 500,"CC(=O)c1ccc(N2[C@@H]3CC[C@H]2C[C@@H](NC(=O)c2ccc(C(N)=O)c(NC(C)C(C)C)c2)C3)nc1 (stereo partly drawn) [N4-[8-(5-acetylpyridin-2-yl)-8-azabicyclo[3.2.1]oct-3-endo-yl]-2-[(1,2-dimethylpropyl)amino]benzene-1,4-dicarboxamide]"
6,< 500,"CCC(CC)Nc1cc(C(=O)N[C@H]2C[C@H]3CC[C@@H](C2)N3c2ccc(C(C)=O)cn2)ccc1C(N)=O [N4-[8-(5-acetylpyridin-2-yl)-8-azabicyclo[3.2.1]oct-3-endo-yl]-2-[(1-ethylpropyl)amino]benzene-1,4-dicarboxamide]"
7,< 500,"CC(=O)c1ccc(N2[C@@H]3CC[C@H]2C[C@@H](NC(=O)c2ccc(C(N)=O)c(NC(C)C)c2)C3)nc1 [N4-[8-(5-acetylpyridin-2-yl)-8-azabicyclo[3.2.1]oct-3-endo-yl]-2-[(1-methylethyl)amino]benzene-1,4-dicarboxamide]"
8,< 500,"CC(=O)c1ccc(N2[C@@H]3CC[C@H]2C[C@@H](NC(=O)c2ccc(C(N)=O)c(NCC(C)C)c2)C3)nc1 [N4-[8-(5-acetylpyridin-2-yl)-8-azabicyclo[3.2.1]oct-3-endo-yl]-2-[(2-methylpropyl)amino]benzefle-1,4-dicarboxamide]"
9,< 500,"CC(=O)c1ccc(N2[C@@H]3CC[C@H]2C[C@@H](NC(=O)c2ccc(C(N)=O)c(Nc4cccc(OCCN(C)C)c4)c2)C3)nc1 [N4-[8-(5-acetylpyridin-2-yl)-8-azabicyclo[3.2.1]oct-3-endo-yl]-2-[(3-{[2-(dimethylamino)ethyl]oxy}phenyl)amino] benzene-1,4-dicarboxamide]"
10,< 500,"CC(=O)c1ccc(N2[C@@H]3CC[C@H]2C[C@@H](NC(=O)c2ccc(C(N)=O)c(NCC4CC4)c2)C3)nc1 [N4-[8-(5-acetylpyridin-2-yl)-8-azabicyclo[3.2.1]oct-3-endo-yl]-2-[(cyclopropylmethyl)amino]benzene-1,4-dicarboxamide]"
11,500 to 999,"CC(=O)c1ccc(N2[C@@H]3CC[C@H]2C[C@@H](NC(=O)c2ccc(C(N)=O)c(NCc4ccccc4)c2)C3)nc1 [N4-[8-(5-acetylpyridin-2-yl)-8-azabicyclo[3.2.1]oct-3-endo-yl]-2-[(phenylmethyl)amino]benzene-1,4-dicarboxamide]"
12,< 500,"COc1ccc(Nc2cc(C(=O)N[C@H]3C[C@H]4CC[C@@H](C3)N4c3ccc(C(C)=O)cn3)ccc2C(N)=O)cc1OCCN(C)C [N4-[8-(5-acetylpyridin-2-yl)-8-azabicyclo[3.2.1]oct-3-endo-yl]-2-{[3-{[2-(dimethylamino)ethyl]oxy}-4-(methyloxy)phenyl]amino}benzene-1,4-dicarboxamide]"
13,< 500,"CC[C@H](C)Nc1cc(C(=O)NC2CC3CCC(C2)N3c2ccc(C(C)=O)cn2)ccc1C(N)=O (stereo partly drawn) [N4-[8-(5-acetylpyridin-2-yl)-8-azabicyclo[3.2.1]oct-3-endo-yl]-2-{[(1S)-1-methylpropyl]amino}benzene-1,4-dicarboxamide]"

# Reference: patent publication US8012956B2, “Tropane compounds” (Exelixis, Inc., priority 2007, dated 2011)
